One experiment concerns human. To be noted: cited from earlier work.
A further experiment relates to rats. To be noted: rat, in vivo; cited from earlier work.
The subject of the next experiment is male Sprague-Dawley rats. In words: animal or person. In kind it is in vivo, rat. To be noted: sc.

These results are taken from patent US20100227876A1 (priority 2009, published 2010).

On to `Oc1ccc2c(c1)[C@@]13CCCC[C@@]1(O)[C@@H](C2)N(CC1CCC1)CC3` [butorphanol], for which the effective human dose with human is 2 mg. `Oc1ccc2c3c1O[C@H]1c4[nH]c5c(c4C[C@@]4(O)[C@@H](C2)N(CC2CC2)CC[C@]314)C[C@@]1(O)[C@H]2Cc3ccc(O)c4c3[C@@]1(CCN2CC1CC1)[C@H]5O4` [n-BNI, nor-binaltorphimine]: the “M.P.E. (maximal percent effect, antinociception)” value in the experiment with rats is 1.0%. For the compound `CN1CC[C@]23c4c5ccc(O)c4O[C@H]2C(=O)CC[C@@]3(O)[C@H]1C5` [oxymorphone], the ED50 in the experiment on male Sprague-Dawley rats (Rattus norvegicus, read-out: ED50 (M.P.E.=50%)) turned out to be 0.078 mg/kg. In the experiment on male Sprague-Dawley rats (rat, in vivo), the “peak effect, time post injection” value came out at 30 min. As to `COC(=O)/C=C/C(=O)N[C@@H]1CC[C@@]2(O)[C@H]3Cc4ccc(O)c5c4[C@@]2(CCN3CC2CC2)[C@H]1O5` [β-FNA, beta-funaltrexamine], the “M.P.E. (maximal percent effect, antinociception)” value in the experiment with rats is on record as 1.0%.

For orientation: ED50 means the midpoint of the dose-response relation.
